Counter-ions that a name gives are not always drawn.

As usually defined, the IC50 is the point on the concentration scale where inhibition reaches its midpoint. What is called EC50 is the concentration needed to bring the measured effect to its halfway point.

In one test the target is recombinant Li-TryR (Leishmania infantum, UniProt A4HSF7). Kind of test: Li-TryR oxidoreductase activity assay. The format is biochemical. How it is done:
Oxidoreductase activity was determined according to the method described by Hamilton et al. (Biochem. J., 2003, 369, 529-537). Briefly, reactions were carried out at 26 °C (250 µL) of HEPES pH 8.0 (40 mM) buffer containing EDTA (1 mM), NADPH (150 µM), NADP+ (30 µM), DTNB (25 µM), T[S]2 (1 µM), glicerol (0.02%), DMSO (1.5%) and recombinant Li-TryR (7 nM). […] Enzyme activity was monitored by the increase in absorbance at 412 nm for 1 h at 26 °C in a VERSAmax microplate reader (Molecular Devices, California, USA). All the assays were conducted in triplicate in at least three independent experiments. Data were analyzed using a non-linear regression model with the Grafit6 software (Erithacus, Horley, Surrey, UK).

Test [1] concerns the target T1, Li-TryR dimeric form (Leishmania infantum, UniProt A4HSF7). Kind of test: Dimer quantitation assay (ELISA), Li-TryR monomer displacement. The format is binding. How it is done: The stability of the Li-TryR dimeric form in the presence of the compounds was evaluated using an Enzyme-Linked ImmunoSorbent Assay (ELISA). Briefly a dual (HIS/FLAG) tagged Li-TryR (400 nM) was incubated in a dimerization buffer (200 µL 300 mM NaCl, 50 mM Tris pH 8.0) for 16 h at 37 °C with agitation and in a humid atmosphere in the presence of different peptide concentration (10 to 90 µM) in 1.5ml tubes. Next, the tubes were centrifuged at 30000 rcf and supernatants were disposed in anti-flag coated 96 well plates and incubated 30 min, at 37°C with gentle shaking. Then the plates were washed ten times with TTBS (Tween 0.1%, 2 mM Tris, 138 mM NaCl 138 pH 7.6) and incubated with diluted monoclonal α-HIS HRP conjugated antibody (200 µL, Abcam, Cambridge, UK) in BSA (5%) in TTBS for 1 h at room temperature. The plates were washed once again as previously described and 1,2-phenylenediamine dihydrochloride (OPD) substrate (100 µL, Dako, Glostrup, Denmark) prepared according to manufacturer's instructions was added. The enzymatic reaction was stopped after 10 min with H2SO4 (100 µL, 0.5 M) and the absorbances were measured at 490 nm in a VERSAmax microplate reader (Molecular Devices, California, USA). All the assays were conducted in triplicate in at least three independent experiments. Data were analyzed using a non-linear regression model with the Grafit6 software (Erithacus, Horley, Surrey, UK). Table 1. IC50 ± SEM values for target compounds of formula I-A and I-B in the oxidoreductase activity assays and in the Li-TryR monomer displacement

The test system of test [2] is L. infantum promastigotes. Kind of test: Leishmanicidal activity on promastigotes (PI exclusion, flow cytometry). The format is cell-based. To be noted: Leishmania infantum, 24 h. How it is done: L. infantum promastigotes (MCAN/ES/ 89/IPZ229/1/89) were grown in RPMI-1640 medium (Sigma-Aldrich, St. Louis, MO, USA) supplemented with 10% heat-inactivated fetal calf serum (FCS), antibiotics, and 25 mm HEPES (pH 7.2) at 26 °C.
(§1) Drug treatment of amastigotes was performed during the logarithmic growth phase at a concentration of 1×10^6 parasites/mL at 37 °C for 24 h. Drug treatment of promastigotes was performed during the logarithmic growth phase at a concentration of 2×10^6 parasites/mL at 26 °C for 24 h. The percentage of living cells was evaluated by flow cytometry by the propidium iodide (PI) exclusion method.^17 Drug concentrations ranged from 0.2 µM to 25 µM.
Background: A flow cytometer gives signals particle by particle.

The subject of test [3] is L. infantum axenic amastigotes. Kind of test: Leishmanicidal activity on axenic amastigotes (PI exclusion, flow cytometry). The test is classed as cell-based. The conditions noted are these: Leishmania infantum, 24 h. The procedure: L. infantum axenic amastigotes were grown in M199 (Invitrogen, Leiden, The Netherlands) medium supplemented with 10% heat inactivated FCS, 1 g/L β-alanine, 100 mg/L L-asparagine, 200 mg/L sacarose, 50 mg/L sodium pyruvate, 320 mg/L malic acid, 40 mg/L fumaric acid, 70 mg/L succinic acid, 200 mg/L α-ketoglutaric acid, 300 mg/L citric acid, 1.1 g/L sodium bicarbonate, 5 g/L MES, 0.4 mg/L hemin, 10 mg/L gentamicine pH 5.4 at 37 °C. THP-1 cells were grown in RPMI-1640 medium (Gibco, Leiden, The Netherlands) supplemented with 10% heat inactivated FCS, antibiotics, 1 mM HEPES, 2 mM glutamine and 1 mM sodium pyruvate, pH 7.2 at 37 °C and 5% CO2.
as §1

For test [4], the system named is L. infantum intracellular amastigotes. Kind of test: Leishmania infection assay (intracellular amastigotes in THP-1 macrophages). The format is cell-based. The conditions noted are these: THP-1, 48 h. The procedure:
Human THP-1 monocytic cells were seeded at 1.2 x 10^5 cells/ml in 24-multidish plates (Nunc, Roskilde, Denmark) and differentiated to macrophages for 24 h in 1 ml of RPMI 1640 medium containing 10 ng/ml of phorbol 12-myristate 13-acetate (PMA) (Sigma-Aldrich, St. Louis, MO). Medium culture was removed, and 1.2 x 10^6 Leishmania amastigotes in 1 ml of THP-1 medium were added to each well. Four hours later, the medium with non-infective amastigotes was completely removed, washed 3 times with 1 phosphate-buffered saline (PBS), and replaced with new THP-1 medium and the corresponding treatment. After 48 h of treatment, medium was removed; THP-1 cells were washed 3 times with 1xPBS and detached with TrypLE Express (Invitrogen, Leiden, The Netherlands) according to the manufacturer's indications. Infection quantification was measured by flow cytometry. Drug concentrations ranged from 0.2 µM to 25 µM.

Test [5] has as its system macrophage-differentiated THP-1 monocytes. Kind of test: Cytotoxicity assay, macrophage-differentiated THP-1 (crystal violet). The test is classed as cell-based. The conditions noted are these: Homo sapiens, THP-1, 24 h; read-out: EC50 (µM) THP-1 dif. How it is done: (§2) Human THP-1 monocytic cells were seeded at 1.2 x 10^5 cells/ml in 24-multidish plates (Nunc, Roskilde, Denmark) and differentiated to macrophages for 24 h in 1 ml of RPMI 1640 medium containing 10 ng/ml of phorbol 12-myristate 13-acetate (PMA) (Sigma-Aldrich, St. Louis, MO). Human HepG2 cells were seeded at 8 x 10^5 cells/ml in 24-multidish plates (Nunc, Roskilde, Denmark). After 24 h of drug treatment, both cell lines were washed with PBS and stained with violet crystal solution (0.2% in 2% ethanol) in for 10 min. at room temperature. After dye removal, cells were washed twice with water. Once dried, the wells were treated with 1% SDS for 30 min and the absorbance at 570nm was monitored in a plate reader. Table 2. EC50± SEM values for the compounds of formula I-A and I-B on L. infantum promastigotes, extracellular and intracellular amastigotes and cytotoxic activity in macrophage-differentiated THP-1 monocytes and HepG2 cell lines

In a further test the test system is HepG2 cells. Kind of test: Cytotoxicity assay, HepG2 (crystal violet). The format is cell-based. The conditions noted are these: Homo sapiens, HepG2, 24 h. How it is done: as §2
Test [6] has as its target T1, Li-TryR dimeric form. The conditions noted are these: background, ChemBioChem, 2013, 14(10), 1212-1217; cited from earlier work.

T1 sequence (A4HSF7 entry or part of it): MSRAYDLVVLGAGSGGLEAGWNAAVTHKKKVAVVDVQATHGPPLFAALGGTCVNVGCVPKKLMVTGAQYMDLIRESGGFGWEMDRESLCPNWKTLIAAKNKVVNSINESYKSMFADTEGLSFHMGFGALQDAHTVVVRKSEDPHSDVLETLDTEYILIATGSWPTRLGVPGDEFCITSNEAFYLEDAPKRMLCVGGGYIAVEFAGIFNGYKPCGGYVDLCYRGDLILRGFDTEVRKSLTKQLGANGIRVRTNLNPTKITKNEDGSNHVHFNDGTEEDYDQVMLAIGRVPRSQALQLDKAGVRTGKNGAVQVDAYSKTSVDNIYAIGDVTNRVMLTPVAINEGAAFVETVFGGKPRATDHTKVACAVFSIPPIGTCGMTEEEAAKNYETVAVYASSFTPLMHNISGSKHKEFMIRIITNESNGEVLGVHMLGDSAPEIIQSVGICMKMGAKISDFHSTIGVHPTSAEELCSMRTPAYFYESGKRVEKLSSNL
Chain of recombinant Li-TryR (A4HSF7 entry or part of it): as above

`C[n+]1nn(-c2ccc(-c3nc(CCc4ccc(-c5ccccc5)cc4)cs3)c(OCCN3CCNC3=O)c2)cc1CCCCN` [Compound 10e, 1-(4-(4-(2-([1,1'-Biphenyl]-4-yl)ethyl)thiazol-2-yl)-3-(2-(2-oxoimidazolidin-1-yl)ethoxy)phenyl)-4-(4-ammoniobutyl)-3-methyl-1H-1,2,3-triazol-3-ium 2,2,2-trifluoroacetate trifluoromethanesulfonate]: the values for the IC50 on recombinant Li-TryR and on Li-TryR dimeric form [1] were 5.19 ± 0.82 µM and 23.8 ± 0.96 µM, respectively. For the same compound, the EC50 in test [2] is 18.7 ± 1.26 µM; in test [3] it was 11.6 ± 1.14 µM; in test [4], 19.5 ± 1 µM; in test [5], 21.6 ± 0.7 µM; in the test with HepG2 cells, not below 75 µM.
In the case of “PEIIQSVGIS-Nle-K-Nle: 13-mer linear peptide derived from an α-helix spanning residues P435 to M447 of Li-TryR; prototype dimerization inhibitor (C-terminal Nle-K-Nle)”, in the test with Li-TryR dimeric form [6], the Li-TryR dimerization inhibition entry is given as “low micromolar range”.
As for “PKIIQSVGIS-Nle-K-Nle: 13-mer linear peptide derived from an α-helix spanning residues P435 to M447 of Li-TryR; prototype dimerization inhibitor (C-terminal Nle-K-Nle)”, the Li-TryR dimerization inhibition entry with Li-TryR dimeric form [6] is “low micromolar range”.
Consider `NCCCCc1cn(-c2ccc(-c3nc(CCc4ccc5ccccc5c4)cs3)c(OCCN3CCNC3=O)c2)nn1` [Compound 8g, 1-(2-(5-(4-(4-Aminobutyl)-1H-1,2,3-triazol-1-yl)-2-(4-(2-(naphthalen-2-yl)ethyl)thiazol-2-yl)phenoxy)ethyl)imidazolidin-2-one 2,2,2 trifluoroacetate], for which the 50% inhibitory concentration (IC50) turned out to be 6.22 ± 1.01 µM at recombinant Li-TryR and 11.2 ± 0.41 µM at Li-TryR dimeric form [1]. Also, the EC50 in test [2] was determined as 8.79 ± 0.75 µM; in test [3], 23 ± 1.86 µM; in test [4], 31.2 ± 1.9 µM; in test [5], 47.6 ± 3.3 µM; in the test with HepG2 cells it was 33.3 ± 2.7 µM.

The record behind these values is patent EP3502109A1, “TRIAZOLE-PHENYL-THIAZOLE HETEROCYCLES AS INNOVATIVE INHIBITORS OF TRYPANOTHIONE REDUCTASE AND THEIR USE AS LEISHMANICIDES” (Consejo Superior De Investigaciones Científicas, priority 2017, dated 2019).
